Here are results for twelve compounds from patent publication US11845760B2, “PRMT5 inhibitors” (AMGEN INC., priority 2020, dated 2023).

The subject of one assay is HCT116 MTAP null cells. The assay is described as follows: HCT116 MTAP null cell line proliferation (CellTiter-Glo cell viability, 6 days). The conditions noted are these: HCT116 MTAP null cells, 6 days of treatment, CellTiter-Glo cell viability, read-out: HCT-116 MTAP null IC50. The class given is cell-based. A digest of the protocol: (§1)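 Viability by CellTiter-Glo after 6 days' drug exposure in wild-type HCT116 and its MTAP-null knockout, with DMSO-only control. Dosing used either 1:3 steps (top 1 or 10 μM) or 22 points in 1:2 steps (top 10 or 50 μM). IC50 taken where the fitted curve crosses 50% of control.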

The next assay relates to HCT116 WT cells. The assay can be described thus: HCT116 WT cell line proliferation (CellTiter-Glo cell viability, 6 days). The format is cell-based. The conditions noted are these: HCT116 WT (parent) cells, 6 days of treatment, CellTiter-Glo cell viability, read-out: HCT-116 WT IC50. A digest of the protocol: as §1

Read-outs that look alike come from different tables or passages of the source.

As to `Nc1nc2cnc(C(=O)N3CCOCC3c3ccc(F)c(OC(F)(F)F)c3)cc2c2c1COC2` (racemic) [Example 345, (4-amino-1,3-dihydrofuro[3,4-c][1,7]naphthyridin-8-yl)((3R)-3-(4-fluoro-3-(trifluoromethoxy)phenyl)-4-morpholinyl)methanone and (4-amino-1,3-dihydrofuro[3,4-c][1,7]naphthyridin-8-yl)((3S)-3-(4-fluoro-3-(trifluoromethoxy)phenyl)-4-morpholinyl)methanone], the IC50 in the assay on HCT116 MTAP null cells (HCT116-MTAP null, 144 h) is 0.346 µM; in the assay on HCT116 WT cells (Homo sapiens, HCT-116, 144 h), 19.1 µM.

As to `Nc1nc2cc(Cl)c(C(=O)N3CCOCC3c3ccc(F)c(OC(F)(F)F)c3)cc2c2c1COC2` (racemic) [Example 346, (4-amino-7-chloro-1,3-dihydrofuro[3,4-c]quinolin-8-yl)((3R)-3-(4-fluoro-3-(trifluoromethoxy)phenyl)-4-morpholinyl)methanone and (4-amino-7-chloro-1,3-dihydrofuro[3,4-c]quinolin-8-yl)((3S)-3-(4-fluoro-3-(trifluoromethoxy)phenyl)-4-morpholinyl)methanone], the IC50 in the assay with HCT116 MTAP null cells (HCT116-MTAP null, 144 h) amounted to 0.062 µM; in the assay on HCT116 WT cells (Homo sapiens, HCT-116, 144 h) it was 1.95 µM.

With `Nc1nc2cc(F)c(C(=O)N3CCOCC3c3ccc(F)c(OC(F)(F)F)c3)cc2c2c1COC2` (racemic) [Example 347, (4-amino-7-fluoro-1,3-dihydrofuro[3,4-c]quinolin-8-yl)((3R)-3-(4-fluoro-3-(trifluoromethoxy)phenyl)-4-morpholinyl)methanone and (4-amino-7-fluoro-1,3-dihydrofuro[3,4-c]quinolin-8-yl)((3S)-3-(4-fluoro-3-(trifluoromethoxy)phenyl)-4-morpholinyl)methanone], the 50% inhibitory concentration (IC50) in the assay with HCT116 MTAP null cells (HCT116-MTAP null, 144 h) was determined as 0.325 µM; in the assay on HCT116 WT cells (Homo sapiens, HCT-116, 144 h) it was 4.7 µM.

Take `Nc1nc2ccc(C(=O)N3CCOCC3c3ccc(F)c(C(F)(F)F)c3)cc2c2c1COC2` (racemic) [Example 348, (4-amino-1,3-dihydrofuro[3,4-c]quinolin-8-yl)((3R)-3-(4-fluoro-3-(trifluoromethyl)phenyl)-4-morpholinyl)methanone and (4-amino-1,3-dihydrofuro[3,4-c]quinolin-8-yl)((3S)-3-(4-fluoro-3-(trifluoromethyl)phenyl)-4-morpholinyl)methanone]: the IC50 in the assay with HCT116 MTAP null cells (HCT116-MTAP null, 144 h) amounted to 0.784 µM; in the assay on HCT116 WT cells (Homo sapiens, HCT-116, 144 h), 13 µM.

With `Nc1nc2cnc(C(=O)N3CCOCC3c3ccc(F)c(C(F)(F)F)c3)cc2c2c1COC2` (racemic) [Example 349, (4-amino-1,3-dihydrofuro[3,4-c][1,7]naphthyridin-8-yl)((3R)-3-(4-fluoro-3-(trifluoromethyl)phenyl)-4-morpholinyl)methanone and (4-amino-1,3-dihydrofuro[3,4-c][1,7]naphthyridin-8-yl)((3S)-3-(4-fluoro-3-(trifluoromethyl)phenyl)-4-morpholinyl)methanone], the IC50 came to 0.505 µM in the assay with HCT116 MTAP null cells and 20.8 µM in the assay on HCT116 WT cells.

For `Nc1nc2cc(Cl)c(C(=O)N3CCOCC3c3ccc(F)c(C(F)(F)F)c3)cc2c2c1COC2` (racemic) [Example 350, (4-amino-7-chloro-1,3-dihydrofuro[3,4-c]quinolin-8-yl)((3R)-3-(4-fluoro-3-(trifluoromethyl)phenyl)-4-morpholinyl)methanone and (4-amino-7-chloro-1,3-dihydrofuro[3,4-c]quinolin-8-yl)((3S)-3-(4-fluoro-3-(trifluoromethyl)phenyl)-4-morpholinyl)methanone], the IC50 with HCT116 MTAP null cells came to 0.107 µM; in the assay with HCT116 WT cells it was 2.89 µM.

For `Nc1nc2cc(F)c(C(=O)N3CCOCC3c3ccc(C(F)(F)F)cn3)cc2c2c1COC2` (racemic) [Example 351, (4-amino-7-fluoro-1,3-dihydrofuro[3,4-c]quinolin-8-yl)((3R)-3-(5-(trifluoromethyl)-2-pyridinyl)-4-morpholinyl)methanone and (4-amino-7-fluoro-1,3-dihydrofuro[3,4-c]quinolin-8-yl)((3S)-3-(5-(trifluoromethyl)-2-pyridinyl)-4-morpholinyl)methanone], the IC50 came out at 0.129 µM in the assay with HCT116 MTAP null cells (HCT116-MTAP null, 144 h) and 6 µM in the assay on HCT116 WT cells (Homo sapiens, HCT-116, 144 h).

For `Nc1nc2cc(F)c(C(=O)N3CCOCC3c3ccnc(C(F)(F)F)c3)cc2c2c1COC2` (racemic) [Example 352, (4-amino-7-fluoro-1,3-dihydrofuro[3,4-c]quinolin-8-yl)((3R)-3-(2-(trifluoromethyl)-4-pyridinyl)-4-morpholinyl)methanone and (4-amino-7-fluoro-1,3-dihydrofuro[3,4-c]quinolin-8-yl)((3S)-3-(2-(trifluoromethyl)-4-pyridinyl)-4-morpholinyl)methanone], the IC50 with HCT116 MTAP null cells was determined as 0.717 µM; in the assay with HCT116 WT cells, 20.7 µM.

For the compound `Nc1nc2cc(Cl)c(C(=O)N3CCOCC3c3ccnc(C(F)(F)F)c3)cc2c2c1COC2` (racemic) [Example 353, (4-amino-7-chloro-1,3-dihydrofuro[3,4-c]quinolin-8-yl)((3R)-3-(2-(trifluoromethyl)-4-pyridinyl)-4-morpholinyl)methanone and (4-amino-7-chloro-1,3-dihydrofuro[3,4-c]quinolin-8-yl)((3S)-3-(2-(trifluoromethyl)-4-pyridinyl)-4-morpholinyl)methanone], the IC50 in the assay on HCT116 MTAP null cells came to 0.234 µM; in the assay on HCT116 WT cells it was 6.89 µM.

As for `C[C@H]1OCc2c1c(N)nc1ccc(C(=O)N3CCOC[C@@H]3c3ccnc(C(F)(F)F)c3)cc21` (racemic) [Example 354, ((3R)-4-amino-3-methyl-1,3-dihydrofuro[3,4-c]quinolin-8-yl)((3R)-3-(2-(trifluoromethyl)-4-pyridinyl)-4-morpholinyl)methanone and ((3R)-4-amino-3-methyl-1,3-dihydrofuro[3,4-c]quinolin-8-yl)((3S)-3-(2-(trifluoromethyl)-4-pyridinyl)-4-morpholinyl)methanone], the IC50 was 0.487 µM with HCT116 MTAP null cells (HCT116-MTAP null, 144 h) and > 10 µM in the assay on HCT116 WT cells (Homo sapiens, HCT-116, 144 h).

Turning to `C[C@@H]1OCc2c1c(N)nc1cnc(C(=O)N3CCOC[C@H]3c3ccc(F)c(C(F)(F)F)c3)cc21` (racemic) [Example 355, ((3S)-4-amino-3-methyl-1,3-dihydrofuro[3,4-c][1,7]naphthyridin-8-yl)((3R)-3-(4-fluoro-3-(trifluoromethyl)phenyl)-4-morpholinyl)methanone and ((3S)-4-amino-3-methyl-1,3-dihydrofuro[3,4-c][1,7]naphthyridin-8-yl)((3S)-3-(4-fluoro-3-(trifluoromethyl)phenyl)-4-morpholinyl)methanone], the IC50 with HCT116 MTAP null cells (HCT116-MTAP null, 144 h) is 4.06 µM; in the assay on HCT116 WT cells (Homo sapiens, HCT-116, 144 h), > 10 µM.

For `C[C@H]1OCc2c1c(N)nc1cnc(C(=O)N3CCOC[C@H]3c3ccc(F)c(C(F)(F)F)c3)cc21` (racemic) [Example 356, ((3R)-4-amino-3-methyl-1,3-dihydrofuro[3,4-c][1,7]naphthyridin-8-yl)((3R)-3-(4-fluoro-3-(trifluoromethyl)phenyl)-4-morpholinyl)methanone and ((3R)-4-amino-3-methyl-1,3-dihydrofuro[3,4-c][1,7]naphthyridin-8-yl)((3S)-3-(4-fluoro-3-(trifluoromethyl)phenyl)-4-morpholinyl)methanone], the IC50 was 0.257 µM in the assay with HCT116 MTAP null cells (HCT116-MTAP null, 144 h) and > 10 µM with HCT116 WT cells (Homo sapiens, HCT-116, 144 h).
